In patent US20030211076A1, “Compositions and methods for treatment of proliferative disorders” (priority 2003, published 2003):
Entries after “also recorded” stand apart in the source; their conditions may differ.

Legend:
[1] = system: porcine pulmonary arterial VEC; experiment: Growth of VEGF165-stimulated VEC (cell counting); type: cell-based
Procedure: The effects of LO oxidized VEGF165 on cell proliferation was also assessed. VEGF165 is a potent mitogen for vascular endothelial cells (VEC). Porcine pulmonary arterial VEC (2×10^4) were plated and incubated overnight in 35 mm-dishes containing 2 ml 15% FBS/M199 medium, and then refed with 5% FBS/M199 with different treatment regimens as shown in A, B and C of FIG. 18. FIG. 18A represents a dose response of VEGF165-stimulated cell growth. Media were supplemented with VEGF165 at the indicated doses and cells were incubated for additional 3 days. Cultures were refed once during the incubation period with fresh media supplemented with VEGF165 at indicated doses. Cells were harvested by trypsinization and counted with a hemacytometer. FIG. 18B represents the LO inhibition of VEGF165-stimulated cell growth. FIG. 18C represents the effects of inactivation of LO by BAPN on VEGF165-stimulated cell growth. […] Data represent the means (±sd) of three separate experiments each assessed with triplicate dishes.

[2] = system: porcine pulmonary arterial vascular endothelial cells (VEC); experiment: Growth of Tat-stimulated vascular endothelial cells (cell counting, phase-contrast microscopy); type: cell-based
Procedure: Stimulation of cell proliferation of porcine pulmonary arterial vascular endothelial cells (VEC) was tested with LO-oxidized Tat. VEC (2×10^4) were plated and incubated overnight in 35 mm-dishes containing 2 ml 15% FBS/M199 medium, and then refed with 5% FBS/M199 with different treatment regimens as shown in A, B and C of FIG. 13. FIG. 13A represents a dose response of Tat-stimulated cell growth. Media were supplemented with Tat at the indicated doses and cells were incubated for additional 3 days. Cultures were refed once during the incubation period with fresh media supplemented with Tat at indicated doses. Cells were harvested by trypsinization and counted with a hemacytometer. FIG. 13B represents the LO inhibition of Tat-stimulated cell growth. FIG. 13C represents the effects of inactivation of LO by BAPN on Tat-stimulated cell growth. LO: 3 or 10 nM, Tat: 10 ng ml^−1, BAPN: 100 μM. Data represent the means (±sd) of three separate experiments each assessed with triplicate dishes.
Numerical and morphological alterations in Tat-stimulated VEC cells treated with LO were observed under phase-contrast microscopy (25'). Cells were cultured as described in FIG. 13 and treated with additives as indicated below. The following represents FIG. 14 phase contrast microscopy: A, control; B, 10 ng ml^−1Tat; C, 10 ng ml^−1 Tat+3 nM LO; D, 10 ng ml^−1 Tat+3 nM LO that was preincubated with 100 μM BAPN for 15 min at 370; E, 100 μM BAPN, alone, and F, 3 nM LO, alone.

[3] = system: intracellular FGF2 in NIH 3T3 6-1 cells; experiment: Intracellular FGF2 crosslinking by LO, Western blotting with monoclonal anti-FGF2; type: cell-based, mouse
Procedure: The possibility that exposure of cells to LO alters the physical state of intracellular FGF2 was assessed by Western blotting with monoclonal anti-FGF2 of cell lysates. Subconfluent NIH 3T3 and NIH 3T3 6-1 cells were incubated for 20 h in 0.3% FBS/DMEM with or without additives as indicated below. Cells were suspended by trypsin treatment and lysed. Aliquots of lysates containing 50 μg of cell protein were analyzed by Western blotting of SDS-PAGE electrophoretograms probing with monoclonal anti-FGF2 (FIGS. 11A and 11B). Total protein was visualized by Coomassie blue staining of SDS-PAGE electrophoretograms (FIG. 11C). FIG. 11A represents FGF2 expression in NIH 3T3 (lane 1) and NIH 3T3 6-1 cells (lane 2). FIG. 11B represents forms of intracellular FGF2 in NIH 3T3 6-1 cells incubated in the absence (lane 1) or presence of 25 nM LO (lane 2) or presence of 25 nM LO which had been preincubated with 100 μM BAPN for 15 min at 37° C. (lane 3). FIG. 11C represents the total protein profiles in control and LO-treated cells with treatments in each lane corresponding to those in FIG. 11B.

[4] = system: growth-arrested Swiss 3T3 cells; experiment: FGF2-stimulated cell cycle progression, FACS analysis; type: cell-based
Procedure: The activity of native and LO-oxidized FGF2 on cell cycle progression was evaluated by using fluorescence activated cell sorting (FACS) analysis (Darzynkiewicz et al.). Swiss 3T3 cells were growth-arrested by incubation in 0.3% fetal bovine serum (FBS)/Dulbecco's Modified Eagle's Medium (DMEM) for 3 days. As depicted in FIGS. 6A-6C, the prepared growth-arrested cells were treated for 20 h at 37° C. with or without FGF2, LO, BAPN or their combinations as indicated. After treatment, cells were washed, suspended by treatment with trypsin, washed again and fixed in 0.5% formaldehyde/0.1% Triton X-100/PBS for 15 minutes on ice followed by incubation of samples in 10 μg propidium iodide and 20 units RNAse per ml of PBS for 60 minutes in the dark for DNA staining. The fluorescence intensities of each sample of 10,000 cells in G1, S and G2/M phases were measured by flow cytometry at the FL2 setting of the fluorescence activated cell sorting (FACS) instrument (Becton-Dickinson Corp.). […] LO was presented at 10 nM, FGF2 at 5 ng ml^−1 and BAPN at 100 μM. Data represent the means (+sd) of three separate experiments each assessed with duplicate dishes.

VEC on Matrigel = experiment: Angiogenic response of Tat-stimulated VEC on Matrigel; type: cell-based
Procedure: VEC grown on Matrigel, a solid gel of basement membrane proteins, rapidly align and form capillary-like structures providing a convenient in vitro model for angiogenesis studies (Albini et al., 1995; Grant et al.). Tat has been reported to enhance this in vitro morphogenesis of VEC consistent with its angiogenic property (Albini et al., 1995).
Cells (3×10^5) were plated on Matrigel-coated dishes. After 1 h incubation, various reagents were added to each culture. […] The following represents FIG. 15 phase-contrast microscopy: A, control; B, 10 ng ml^−1 Tat; C, 10 ng ml^−1 Tat+10 nM LO; D, 10 ng ml^−1 Tat+10 nM LO that was preincubated with 100 μM BAPN for 15 min at 370; E, 100 μM BAPN, alone, and F, 10 nM LO, alone.

| Compound | effect on LO inhibition of VEGF165-stimulated VEC proliferation ([1]; 100 μM BAPN) | cell growth ([2]; 100 μM BAPN alone) | effect on LO inhibition of Tat-stimulated cell growth ([2]; 100 μM BAPN, LO 3 or 10 nM, Tat 10 ng/ml) | effect on LO-induced FGF2 oligomer formation ([3]; 25 nM LO preincubated with 100 μM BAPN for 15 min at 37° C.) | response relative to that observed with FGF2 alone ([4]; FGF2 5 ng/ml treated with 10 nM LO and 100 μM BAPN) | effect on LO-mediated inhibition of the angiogenic response (VEC on Matrigel; 10 nM LO preincubated with 100 μM BAPN for 15 min) | VEGF165-dependent cell growth ([1]; VEGF165 15 ng/ml) | Tat-dependent cell proliferation ([2]; LO at 3 nM, Tat 10 ng/ml) | cell numbers ([2]; LO at doses ≧10 nM, Tat 10 ng/ml) | forms of intracellular FGF2 ([3]; 25 nM LO, 20 h) | maximal decrease of FGF2 stimulation of cell cycle progression ([4]; 10 nM (0.32 μg/ml) LO, 0.28 nM FGF2) | Tat-stimulated morphogenesis of VEC (VEC on Matrigel; 10 ng/ml Tat + 10 nM LO) |
| --- | --- | --- | --- | --- | --- | --- | --- | --- | --- | --- | --- | --- |
| N#CCCN [BAPN, β-Aminopropionitrile, reference compound] | effectively blocked | had no effect on the cell growth | totally inhibited; also recorded: cells sustained growth to confluence | prevented | 82±6% | not prevented | – | – | – | – | – | – |
| lysyl oxidase [LO] | – | – | – | – | – | – | inhibited VEGF165-dependent cell growth with increased doses | effectively suppressed the Tat-dependent cell proliferation to the control level; also recorded: the growth stimulating ability of Tat was inhibited | severe loss in cell numbers below the control | induced the formation of crosslinked dimers and oligomers of FGF2 within the cells | 80% | effectively blocked |
